From ChEMBL document CHEMBL1909046, “DrugMatrix in vitro pharmacology data”

Assays:
Cytochrome P450 2E1 = Cytochrome P450 2E1 (Homo sapiens, UniProt P05181); conditions: bti-tn-5b1-4; also: in other assays of this panel Not Active means under 50% inhibition at 10 µM
[1] = molecular target: T1, C-X-C chemokine receptor type 2 (Homo sapiens, UniProt P25025); assay type: cell membranes, Membrane; conditions: cho-k1; also: in other assays of this panel Not Active means under 50% inhibition at 10 µM
T1 sequence (P25025 whole entry): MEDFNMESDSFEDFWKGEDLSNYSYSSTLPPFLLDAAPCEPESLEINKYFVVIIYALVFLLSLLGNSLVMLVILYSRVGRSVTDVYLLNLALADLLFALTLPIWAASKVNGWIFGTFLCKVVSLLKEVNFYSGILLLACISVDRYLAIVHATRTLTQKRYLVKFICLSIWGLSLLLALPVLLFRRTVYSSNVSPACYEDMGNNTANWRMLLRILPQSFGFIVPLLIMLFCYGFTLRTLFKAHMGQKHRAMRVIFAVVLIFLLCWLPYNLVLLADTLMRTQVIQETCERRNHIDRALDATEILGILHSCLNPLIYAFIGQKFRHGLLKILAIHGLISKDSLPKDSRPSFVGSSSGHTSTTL

[2] = DRUGMATRIX: Tumor Necrosis Factor (TNF), Non-Selective radioligand binding (ligand: [125I] TNF-alpha); assay type: cell membranes, Membrane; conditions: u-937; Not Active = under 50% inhibition at 10 µM
[3] = molecular target: Receptor tyrosine-protein kinase erbB-2 (Homo sapiens, UniProt P04626); experiment: biochemical; assay type: cell-based, Insect cells;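 also: inhibition of HER2 kinase enzyme activity, measured with Poly(Glu:Tyr) as the phosphorylation substrate; in other assays of this panel Not Active means under 50% inhibition at 10 µM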
Endothelin-1 receptor = molecular target: T2, Endothelin-1 receptor (Homo sapiens, UniProt P25101); assay type: cell membranes, Membrane; conditions: cho-k1; also: in other assays of this panel Not Active means under 50% inhibition at 10 µM
T2 sequence (P25101 whole entry): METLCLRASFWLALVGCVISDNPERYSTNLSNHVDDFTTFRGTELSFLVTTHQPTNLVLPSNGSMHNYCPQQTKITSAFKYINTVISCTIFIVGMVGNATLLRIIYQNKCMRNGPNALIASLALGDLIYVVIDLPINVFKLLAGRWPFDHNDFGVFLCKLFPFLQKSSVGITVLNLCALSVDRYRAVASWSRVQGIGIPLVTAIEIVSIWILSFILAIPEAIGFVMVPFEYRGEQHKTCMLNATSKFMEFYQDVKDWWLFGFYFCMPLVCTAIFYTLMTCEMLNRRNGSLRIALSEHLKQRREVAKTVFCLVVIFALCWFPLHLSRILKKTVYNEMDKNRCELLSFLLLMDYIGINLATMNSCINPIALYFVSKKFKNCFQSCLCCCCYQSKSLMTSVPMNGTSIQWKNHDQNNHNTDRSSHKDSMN

[4] = molecular target: Vascular endothelial growth factor receptor 1 (Homo sapiens, UniProt P17948); experiment: biochemical; assay type: cell-based, HUVEC; conditions: huvec; also: in other assays of this panel Not Active means under 50% inhibition at 10 µM
Sequence of Vascular endothelial growth factor receptor 1 (P17948 whole entry): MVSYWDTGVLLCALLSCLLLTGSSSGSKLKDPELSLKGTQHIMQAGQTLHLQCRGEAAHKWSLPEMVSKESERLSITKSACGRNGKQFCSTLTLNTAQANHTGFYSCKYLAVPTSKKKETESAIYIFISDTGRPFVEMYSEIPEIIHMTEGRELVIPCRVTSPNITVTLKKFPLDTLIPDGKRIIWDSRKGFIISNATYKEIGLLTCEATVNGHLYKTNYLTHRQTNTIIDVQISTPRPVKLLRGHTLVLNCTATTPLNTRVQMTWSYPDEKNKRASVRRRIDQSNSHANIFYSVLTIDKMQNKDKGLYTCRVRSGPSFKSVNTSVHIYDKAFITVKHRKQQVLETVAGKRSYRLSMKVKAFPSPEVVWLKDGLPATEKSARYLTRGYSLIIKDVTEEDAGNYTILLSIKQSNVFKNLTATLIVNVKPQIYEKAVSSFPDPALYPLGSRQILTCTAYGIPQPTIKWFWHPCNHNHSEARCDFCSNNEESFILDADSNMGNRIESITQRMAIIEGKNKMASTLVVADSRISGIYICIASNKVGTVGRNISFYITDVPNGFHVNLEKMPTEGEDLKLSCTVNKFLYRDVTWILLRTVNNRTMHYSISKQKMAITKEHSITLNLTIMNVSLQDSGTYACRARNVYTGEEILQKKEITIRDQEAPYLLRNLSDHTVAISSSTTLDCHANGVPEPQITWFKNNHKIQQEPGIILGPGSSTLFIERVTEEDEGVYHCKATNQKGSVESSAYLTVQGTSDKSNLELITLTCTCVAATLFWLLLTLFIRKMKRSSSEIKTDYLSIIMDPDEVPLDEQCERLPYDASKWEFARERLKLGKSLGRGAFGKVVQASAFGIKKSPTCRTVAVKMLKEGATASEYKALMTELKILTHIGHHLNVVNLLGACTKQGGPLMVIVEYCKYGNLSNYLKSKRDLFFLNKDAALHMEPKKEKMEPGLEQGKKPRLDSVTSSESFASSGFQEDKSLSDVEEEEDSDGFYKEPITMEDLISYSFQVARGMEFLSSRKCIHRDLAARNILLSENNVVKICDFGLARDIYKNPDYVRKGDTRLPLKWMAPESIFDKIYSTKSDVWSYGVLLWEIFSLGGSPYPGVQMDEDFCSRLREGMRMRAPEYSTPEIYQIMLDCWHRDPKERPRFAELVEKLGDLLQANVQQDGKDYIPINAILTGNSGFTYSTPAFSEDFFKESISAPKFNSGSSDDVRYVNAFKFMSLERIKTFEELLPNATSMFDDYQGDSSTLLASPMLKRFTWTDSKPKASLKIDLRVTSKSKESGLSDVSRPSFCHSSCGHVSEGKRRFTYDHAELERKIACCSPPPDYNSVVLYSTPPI

[5] = DRUGMATRIX: Purinergic P2X radioligand binding (ligand: [3H] alpha, beta-Methylene-ATP); assay type: cell membranes, Oryctolagus cuniculus, New Zealand albino, Urinary bladder, Membrane; conditions: Not Active = under 50% inhibition at 10 µM
Acetylcholinesterase = Acetylcholinesterase (Homo sapiens, UniProt P22303); experiment: DRUGMATRIX: Acetylcholinesterase enzyme inhibition (substrate: acetylthiocholine); assay type: cell-based, HEK293; conditions: hek293; Not Active = under 50% inhibition at 10 µM
Sequence of Acetylcholinesterase (P22303 whole entry): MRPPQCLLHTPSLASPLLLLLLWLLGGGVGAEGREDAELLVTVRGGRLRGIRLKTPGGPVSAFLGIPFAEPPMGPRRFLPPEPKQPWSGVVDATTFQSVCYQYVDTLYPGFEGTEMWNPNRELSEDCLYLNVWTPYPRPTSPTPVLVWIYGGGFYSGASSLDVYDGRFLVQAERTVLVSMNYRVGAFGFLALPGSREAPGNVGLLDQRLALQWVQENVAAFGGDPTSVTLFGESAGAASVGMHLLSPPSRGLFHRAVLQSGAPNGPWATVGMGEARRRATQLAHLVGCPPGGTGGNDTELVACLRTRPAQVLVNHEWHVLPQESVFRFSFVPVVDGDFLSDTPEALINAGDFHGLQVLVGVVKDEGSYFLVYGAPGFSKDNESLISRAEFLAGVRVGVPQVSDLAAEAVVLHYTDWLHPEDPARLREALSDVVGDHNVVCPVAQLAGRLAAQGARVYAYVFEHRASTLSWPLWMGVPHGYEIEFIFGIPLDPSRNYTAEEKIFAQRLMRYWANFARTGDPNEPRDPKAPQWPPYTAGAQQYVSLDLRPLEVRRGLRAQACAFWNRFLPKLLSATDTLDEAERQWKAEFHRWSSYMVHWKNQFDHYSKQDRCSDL

Carbonic anhydrase 2 = Carbonic anhydrase 2 (Homo sapiens, UniProt P00918); experiment: DRUGMATRIX: Carbonic Anhydrase II enzyme inhibition (substrate: 4-Nitrophenyl acetate (4-NPA)); assay type: tissue-based; conditions: erythrocyte; Not Active = under 50% inhibition at 10 µM

Sequence of Cytochrome P450 2E1 (P05181 whole entry): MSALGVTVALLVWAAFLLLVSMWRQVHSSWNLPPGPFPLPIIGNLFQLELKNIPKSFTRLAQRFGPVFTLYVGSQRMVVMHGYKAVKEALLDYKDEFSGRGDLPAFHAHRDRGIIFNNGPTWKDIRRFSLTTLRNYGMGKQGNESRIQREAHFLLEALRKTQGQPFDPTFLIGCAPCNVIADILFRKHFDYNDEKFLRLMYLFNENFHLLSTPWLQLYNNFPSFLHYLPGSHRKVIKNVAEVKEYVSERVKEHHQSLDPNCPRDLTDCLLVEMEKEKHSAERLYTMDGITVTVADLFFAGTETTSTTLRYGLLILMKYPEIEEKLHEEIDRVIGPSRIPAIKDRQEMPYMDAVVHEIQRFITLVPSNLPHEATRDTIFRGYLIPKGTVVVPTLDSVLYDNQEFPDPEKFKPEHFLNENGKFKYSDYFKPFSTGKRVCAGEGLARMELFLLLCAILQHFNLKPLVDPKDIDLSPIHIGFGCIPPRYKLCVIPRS

With CCCCNc1ccc(C(=O)OCCN(C)C)cc1 [TETRACAINE] the IC50 (Cytochrome P450 2E1) was “Not Active”, the Ki (Cytochrome P450 2E1) was “Not Active” and the IC50 [1] was “Not Active”. The IC50 [2] was “Not Active”, the Ki [2] was “Not Active” and the IC50 ([3]; insect cells) was “Not Active”. The IC50 (Endothelin-1 receptor) was “Not Active”, the IC50 [4] was “Not Active” and the IC50 [5] was “Not Active”. For the same molecule, the Ki [5] was “Not Active”, the IC50 (Acetylcholinesterase) was “Not Active” and the IC50 (Carbonic anhydrase 2) was “Not Active”.

In the case of Cn1c(=O)c2nc[nH]c2n(C)c1=O.O [THEOPHYLLINE], the IC50 (Cytochrome P450 2E1) is reported as “Not Active”, the Ki (Cytochrome P450 2E1) is reported as “Not Active” and the IC50 [1] is reported as “Not Active”. The IC50 [2] was “Not Active”, the Ki [2] was “Not Active” and the IC50 ([3]; insect cells) was “Not Active”. For the same molecule, the IC50 (Endothelin-1 receptor) was “Not Active”, the IC50 [4] was “Not Active” and the IC50 [5] was “Not Active”. The Ki [5] was “Not Active”, the IC50 (Acetylcholinesterase) was “Not Active” and the IC50 (Carbonic anhydrase 2) was “Not Active”.

For CS(=O)(=O)c1ccc([C@@H](O)[C@@H](CO)NC(=O)C(Cl)Cl)cc1 [THIAMPHENICOL], the IC50 (Cytochrome P450 2E1) was “Not Active”, the Ki (Cytochrome P450 2E1) was “Not Active” and the IC50 [1] was “Not Active”. The IC50 [2] was “Not Active”, the Ki [2] was “Not Active” and the IC50 ([3]; insect cells) was “Not Active”. For the same molecule, the IC50 (Endothelin-1 receptor) was “Not Active”, the IC50 [4] was “Not Active” and the IC50 [5] was “Not Active”. For the same molecule, the Ki [5] was “Not Active”, the IC50 (Acetylcholinesterase) was “Not Active” and the IC50 (Carbonic anhydrase 2) was “Not Active”.

With CCN(CC)CCNC(=O)c1cc(S(C)(=O)=O)ccc1OC [TIAPRIDE] the IC50 (Cytochrome P450 2E1) was “Not Active”, the Ki (Cytochrome P450 2E1) was “Not Active” and the IC50 [1] was “Not Active”. The IC50 [2] was “Not Active”, the Ki [2] was “Not Active” and the IC50 ([3]; insect cells) was “Not Active”. For the same molecule, the IC50 (Endothelin-1 receptor) was “Not Active”, the IC50 [4] was “Not Active” and the IC50 [5] was “Not Active”. The Ki [5] was “Not Active”, the IC50 (Acetylcholinesterase) was “Not Active” and the IC50 (Carbonic anhydrase 2) was “Not Active”.

With Clc1ccccc1CN1CCc2sccc2C1 [TICLOPIDINE] the IC50 (Cytochrome P450 2E1) was “Not Active”, the Ki (Cytochrome P450 2E1) was “Not Active” and the IC50 [1] was “Not Active”. The IC50 [2] was “Not Active”, the Ki [2] was “Not Active” and the IC50 ([3]; insect cells) was “Not Active”. For the same molecule, the IC50 (Endothelin-1 receptor) was “Not Active”, the IC50 [4] was “Not Active” and the IC50 [5] was “Not Active”. The Ki [5] was “Not Active”, the IC50 (Acetylcholinesterase) was “Not Active” and the IC50 (Carbonic anhydrase 2) was “Not Active”.

For NC1CCN(c2nc3c(cc2F)c(=O)c(C(=O)O)cn3-c2ccc(F)cc2F)C1 (configuration not stated) [TOSUFLOXACIN], the IC50 (Cytochrome P450 2E1) was “Not Active”, the Ki (Cytochrome P450 2E1) was “Not Active” and the IC50 [1] was “Not Active”. For the same molecule, the IC50 [2] was “Not Active”, the Ki [2] was “Not Active” and the IC50 ([3]; insect cells) was “Not Active”. The IC50 (Endothelin-1 receptor) was “Not Active”, the IC50 [4] was “Not Active” and the IC50 [5] was “Not Active”. The Ki [5] was “Not Active”, the IC50 (Acetylcholinesterase) was “Not Active” and the IC50 (Carbonic anhydrase 2) was “Not Active”.

In the case of O=C(Nc1ccc(Br)cc1)c1cc(Br)cc(Br)c1O [TRIBROMSALAN], the IC50 (Cytochrome P450 2E1) is reported as “Not Active”, the Ki (Cytochrome P450 2E1) is reported as “Not Active” and the IC50 [1] is reported as “Not Active”. The IC50 [2] was “Not Active”, the Ki [2] was “Not Active” and the IC50 ([3]; read-out: IC50) was 5.97 µM. The IC50 (Endothelin-1 receptor) was “Not Active”, the IC50 [4] was “Not Active” and the IC50 [5] was “Not Active”. For the same molecule, the Ki [5] was “Not Active”, the IC50 (Acetylcholinesterase) was “Not Active” and the IC50 (Carbonic anhydrase 2) was “Not Active”.

With CC(c1cc2ccccc2s1)N(O)C(N)=O (configuration not stated) [ZILEUTON] the IC50 (Cytochrome P450 2E1) was “Not Active”, the Ki (Cytochrome P450 2E1) was “Not Active” and the IC50 [1] was “Not Active”. For the same molecule, the IC50 [2] was “Not Active”, the Ki [2] was “Not Active” and the IC50 ([3]; insect cells) was “Not Active”. For the same molecule, the IC50 (Endothelin-1 receptor) was “Not Active”, the IC50 [4] was “Not Active” and the IC50 [5] was “Not Active”. For the same molecule, the Ki [5] was “Not Active”, the IC50 (Acetylcholinesterase) was “Not Active” and the IC50 (Carbonic anhydrase 2) was “Not Active”.

For MANGANESE CHLORIDE ANHYDROUS, the IC50 (Cytochrome P450 2E1) was “Not Active”, the Ki (Cytochrome P450 2E1) was “Not Active” and the IC50 [1] was “Not Active”. For the same molecule, the Ki [1] was “Not Active”, the IC50 [2] was “Not Active” and the Ki [2] was “Not Active”. The IC50 ([3]; insect cells) was “Not Active”, the Ki ([3]; insect cells) was “Not Active” and the IC50 (Endothelin-1 receptor) was “Not Active”. The Ki (Endothelin-1 receptor) was “Not Active”, the IC50 [4] was “Not Active” and the Ki [4] was “Not Active”. The IC50 [5] was “Not Active”, the Ki [5] was “Not Active” and the IC50 (Acetylcholinesterase) was “Not Active”. For the same molecule, the Ki (Acetylcholinesterase) was “Not Active”, the IC50 (Carbonic anhydrase 2) was “Not Active” and the Ki (Carbonic anhydrase 2) was “Not Active”.

In the case of SODIUM ORTHOVANAD, the IC50 (Cytochrome P450 2E1) is reported as “Not Active”, the Ki (Cytochrome P450 2E1) is reported as “Not Active” and the IC50 [1] is reported as “Not Active”. For the same molecule, the Ki [1] was “Not Active”, the IC50 [2] was “Not Active” and the Ki [2] was “Not Active”. The IC50 ([3]; insect cells) was “Not Active”, the Ki ([3]; insect cells) was “Not Active” and the IC50 (Endothelin-1 receptor) was “Not Active”. The Ki (Endothelin-1 receptor) was “Not Active”, the IC50 [4] was “Not Active” and the Ki [4] was “Not Active”. For the same molecule, the IC50 [5] was “Not Active”, the Ki [5] was “Not Active” and the IC50 (Acetylcholinesterase) was “Not Active”. For the same molecule, the Ki (Acetylcholinesterase) was “Not Active”, the IC50 (Carbonic anhydrase 2) was “Not Active” and the Ki (Carbonic anhydrase 2) was “Not Active”.
